# “Also recorded” adds a separate entry of the source.
# Experiment: phase 1b trial: adverse reactions and tolerability in CHB patients
# Type: in vivo, human
# Procedure: This was a randomized, open-label, placebo-controlled, phase 1b study (Clinical Trial Registration Number: NCT05470829; Chinese Clinical Trial Registration Number: CTR20210686), which was conducted at the Phase I Clinical Research Center, The First Hospital of Jilin University (Jilin, China), during the period from May to November of 2021. In order to minimize the safety risk of Canocapavir, an adaptive ascending dosing strategy was adopted for Canocapavir treatment in this study. The second and third assigned doses were initiated only after the safety data from the previous dose was reviewed and determined to be safe by the Principal Investigator and the Sponsor on day 8 postdosing (post drug administration days). Canocapavir was administered at the Clinical Research Center on days 1–8 and day 28 and at home on days 9–27 under the same conditions (fixed administration time and fasting condition). Patients were required to visit the facility for follow-up on days 15, 22, 27, 43 ± 1, and 57 ± 2 postdosing. The study protocol and informed consent forms were prepared according to the principles of the Declaration of Helsinki. The study protocol was approved by the Institutional Review Board of the First Hospital of Jilin University (approval number: 20Y201-006). All recruited patients provided written informed consent before participating in any study-related procedures.
# A total of 30 CHB patients were recruited in this study and were randomly assigned into three cohorts (N = 10, each). In these three cohorts, the patients (in a ratio of 4:1) received 50, 100, or 200 mg of Canocapavir or placebo once a day for 28 consecutive days under fasting conditions, followed by a 28-day follow-up (Fig. 1). The patients, care providers, and those assessing outcomes were blinded during the study. This random process was completed in an electronic data capture system, and the details are shown in Additional file 1.
# To examine possible adverse events (AEs) and adverse reactions (an adverse event is definitely, probably, or possibly related to the drug) in this study, the recruited patients underwent regular clinical laboratory testing, 12-lead electrocardiograms, examination of vital signs, abdominal ultrasound, and regular physical examinations, using the baseline data as a control. The severity of AEs and laboratory abnormalities were graded according to the Common Terminology Criteria for Adverse Events (CTCAE), version 5.0, which defines toxicity criteria. The AEs were coded using the Medical Dictionary for Regulatory Activities, version 24.1 (McLean, VA, USA).
smiles,measurement,setting,value
O=C1CO[C@H](c2cn(-c3ccc(Br)cc3)nc2-c2ccc(F)cc2)N1CCc1ccc2[nH]c(=O)[nH]c2c1 [Canocapavir],"Increased aspartate aminotransferase, cases","100 mg q.d., 28 days",2 case
same,"Increased aspartate aminotransferase, grade I, number of subjects","100 mg q.d., 28 days",2 n
same,"Increased aspartate aminotransferase, grade I, percent of subjects","100 mg q.d., 28 days",25.00%
same,"Increased aspartate aminotransferase, grade II, number of subjects","100 mg q.d., 28 days",0 n
same,"Increased aspartate aminotransferase, grade II, percent of subjects","100 mg q.d., 28 days",0%
same,"Increased aspartate aminotransferase, number of subjects (%)","100 mg q.d., 28 days",2 (25) n (%)
same,"Increased bilirubin, cases","100 mg q.d., 28 days",0 case
same,"Increased bilirubin, grade I, number of subjects","100 mg q.d., 28 days",0 n
same,"Increased bilirubin, grade I, percent of subjects","100 mg q.d., 28 days",0%
same,"Increased bilirubin, number of subjects (%)","100 mg q.d., 28 days",0 (0) n (%)
same,"Increased creatinine, cases","100 mg q.d., 28 days",0 case
same,"Increased creatinine, grade I, number of subjects","100 mg q.d., 28 days",0 n
same,"Increased creatinine, grade I, percent of subjects","100 mg q.d., 28 days",0%
same,"Increased creatinine, number of subjects (%)","100 mg q.d., 28 days",0 (0) n (%)
same,"Increased γ-glutamyltransferase, cases","100 mg q.d., 28 days",1 case
same,"Increased γ-glutamyltransferase, grade I, number of subjects","100 mg q.d., 28 days",1 n
same,"Increased γ-glutamyltransferase, grade I, percent of subjects","100 mg q.d., 28 days",12.50%
same,"Increased γ-glutamyltransferase, number of subjects (%)","100 mg q.d., 28 days",1 (12.5) n (%)
same,"Rash, cases","100 mg q.d., 28 days",1 case
same,"Rash, grade I, number of subjects","100 mg q.d., 28 days",1 n
same,"Rash, grade I, percent of subjects","100 mg q.d., 28 days",12.50%
same,"Rash, number of subjects (%)","100 mg q.d., 28 days",1 (12.5) n (%)
same,"Total adverse reactions, cases","100 mg q.d., 28 days",10 case
same,"Total adverse reactions, number of subjects (%)","100 mg q.d., 28 days",5 (62.5) n (%)
same,"maximum ALT level, patient E3010","100 mg q.d., day 15, baseline 144.9 U/L",385.4 U/L
same,"Adverse reactions, grade I, number of subjects","200 mg q.d., 28 days",3 n
same,"Adverse reactions, grade I, percent of subjects","200 mg q.d., 28 days",37.50%
same,"Adverse reactions, grade II, number of subjects","200 mg q.d., 28 days",0 n
same,"Adverse reactions, grade II, percent of subjects","200 mg q.d., 28 days",0%
same,"Adverse reactions, grade III, number of subjects","200 mg q.d., 28 days",1 n
same,"Adverse reactions, grade III, percent of subjects","200 mg q.d., 28 days",12.50%
same,"Adverse reactions, total (all grades), number of subjects","200 mg q.d., 28 days",4 n
same,"Adverse reactions, total (all grades), percent of subjects","200 mg q.d., 28 days",50.0%
same,"Decreased neutrophil count, cases","200 mg q.d., 28 days",0 case
same,"Decreased neutrophil count, grade II, number of subjects","200 mg q.d., 28 days",0 n
same,"Decreased neutrophil count, grade II, percent of subjects","200 mg q.d., 28 days",0%
same,"Decreased neutrophil count, grade III, number of subjects","200 mg q.d., 28 days",0 n
same,"Decreased neutrophil count, grade III, percent of subjects","200 mg q.d., 28 days",0%
same,"Decreased neutrophil count, number of subjects (%)","200 mg q.d., 28 days",0 (0) n (%)
same,"Decreased platelet count, cases","200 mg q.d., 28 days",0 case
same,"Decreased platelet count, grade I, number of subjects","200 mg q.d., 28 days",0 n
same,"Decreased platelet count, grade I, percent of subjects","200 mg q.d., 28 days",0%
same,"Decreased platelet count, number of subjects (%)","200 mg q.d., 28 days",0 (0) n (%)
same,"Decreased serum phosphorus, cases","200 mg q.d., 28 days",1 case
same,"Decreased serum phosphorus, grade I, number of subjects","200 mg q.d., 28 days",1 n
same,"Decreased serum phosphorus, grade I, percent of subjects","200 mg q.d., 28 days",12.50%
same,"Decreased serum phosphorus, number of subjects (%)","200 mg q.d., 28 days",1 (12.5) n (%)
same,"Decreased white blood cell count, cases","200 mg q.d., 28 days",0 case
same,"Decreased white blood cell count, grade II, number of subjects","200 mg q.d., 28 days",0 n
same,"Decreased white blood cell count, grade II, percent of subjects","200 mg q.d., 28 days",0%
same,"Decreased white blood cell count, number of subjects (%)","200 mg q.d., 28 days",0 (0) n (%)
same,"Hypertriglyceridemia, cases","200 mg q.d., 28 days",2 case
same,"Hypertriglyceridemia, grade III, percent of subjects","200 mg q.d., 28 days",12.50%
same,"Hypertriglyceridemia, number of subjects (%)","200 mg q.d., 28 days",1 (12.5) n (%)
same,"Increased alanine aminotransferase, cases","200 mg q.d., 28 days",3 case
same,"Increased alanine aminotransferase, grade I, number of subjects","200 mg q.d., 28 days",3 n
same,"Increased alanine aminotransferase, grade I, percent of subjects","200 mg q.d., 28 days",37.50%
same,"Increased alanine aminotransferase, grade II, number of subjects","200 mg q.d., 28 days",0 n
same,"Increased alanine aminotransferase, grade II, percent of subjects","200 mg q.d., 28 days",0%
same,"Increased alanine aminotransferase, number of subjects (%)","200 mg q.d., 28 days",3 (37.5) n (%)
same,"Increased aspartate aminotransferase, cases","200 mg q.d., 28 days",1 case
same,"Increased aspartate aminotransferase, grade I, number of subjects","200 mg q.d., 28 days",1 n
same,"Increased aspartate aminotransferase, grade I, percent of subjects","200 mg q.d., 28 days",12.50%
same,"Increased aspartate aminotransferase, grade II, number of subjects","200 mg q.d., 28 days",0 n
same,"Increased aspartate aminotransferase, grade II, percent of subjects","200 mg q.d., 28 days",0%
same,"Increased aspartate aminotransferase, number of subjects (%)","200 mg q.d., 28 days",1 (12.5) n (%)
same,"Increased bilirubin, cases","200 mg q.d., 28 days",1 case
same,"Increased bilirubin, grade I, number of subjects","200 mg q.d., 28 days",1 n
same,"Increased bilirubin, grade I, percent of subjects","200 mg q.d., 28 days",12.50%
same,"Increased bilirubin, number of subjects (%)","200 mg q.d., 28 days",1 (12.5) n (%)
same,"Increased creatinine, cases","200 mg q.d., 28 days",0 case
same,"Increased creatinine, grade I, number of subjects","200 mg q.d., 28 days",0 n
same,"Increased creatinine, grade I, percent of subjects","200 mg q.d., 28 days",0%
same,"Increased creatinine, number of subjects (%)","200 mg q.d., 28 days",0 (0) n (%)
same,"Increased γ-glutamyltransferase, cases","200 mg q.d., 28 days",0 case
same,"Increased γ-glutamyltransferase, grade I, number of subjects","200 mg q.d., 28 days",0 n
same,"Increased γ-glutamyltransferase, grade I, percent of subjects","200 mg q.d., 28 days",0%
same,"Increased γ-glutamyltransferase, number of subjects (%)","200 mg q.d., 28 days",0 (0) n (%)
same,"Rash, cases","200 mg q.d., 28 days",0 case
same,"Rash, grade I, number of subjects","200 mg q.d., 28 days",0 n
same,"Rash, grade I, percent of subjects","200 mg q.d., 28 days",0%
same,"Rash, number of subjects (%)","200 mg q.d., 28 days",0 (0) n (%)
same,"Total adverse reactions, cases","200 mg q.d., 28 days",8 case
same,"Total adverse reactions, number of subjects (%)","200 mg q.d., 28 days",4 (50) n (%)
same,relation of incidence of adverse reactions to dose,50–200 mg q.d.,not significantly correlated to its increased dose
same,safety and tolerability,"50–200 mg q.d., 28 days",well tolerated; also recorded: safe and tolerated
same,serious adverse events,"50–200 mg q.d., 28 days",no serious adverse events; also recorded: No serious AE
same,withdrawal from the study,"50–200 mg q.d., 28 days",no patients withdrew
same,patients with a grade I adverse reaction (elevation of ALT or AST),across dose cohorts,12.5–37.5%
same,cases of AEs in the Canocapavir cohort,"all doses, 24 patients",38 cases
same,cases of adverse reactions in the Canocapavir cohort,"all doses, 24 patients",24 cases
same,patients with AEs in the Canocapavir cohort,"all doses, 24 patients",75%
same,patients with adverse reactions in the Canocapavir cohort,"all doses, 24 patients",50%

# From article PMC10022191, “Safety, tolerability, pharmacokinetics, and antiviral activity of the novel core protein allosteric modulator ZM-H1505R (Canocapavir) in chronic hepatitis B patients: a randomized multiple-dose escalation trial” (BMC Medicine, 2023)
